Measurements reported in ChEMBL document CHEMBL1135594 (J Med Chem, 2002).
pIC50: −log10 of the molar value. Calls of active or inactive are those of the source. The rule behind the calls is not given here.

Legend:
Plasmodium falciparum [1] = test: microbe, parasite or virus in culture
[2] = target: T1, Histidine-rich protein PFHRP-II (Plasmodium falciparum, UniProt P05227); test: Inhibition of beta-hematin formation; format: functional
T1 sequence (P05227 whole entry): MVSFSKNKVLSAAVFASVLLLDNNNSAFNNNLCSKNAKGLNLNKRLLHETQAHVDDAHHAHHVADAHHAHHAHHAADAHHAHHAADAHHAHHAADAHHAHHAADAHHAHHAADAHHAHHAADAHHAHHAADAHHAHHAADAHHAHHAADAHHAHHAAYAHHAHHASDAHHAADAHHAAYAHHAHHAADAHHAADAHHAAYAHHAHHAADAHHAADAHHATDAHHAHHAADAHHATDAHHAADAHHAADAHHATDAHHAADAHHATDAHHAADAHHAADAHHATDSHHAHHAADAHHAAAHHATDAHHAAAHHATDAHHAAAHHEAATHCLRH

Plasmodium falciparum [3] = test: microbe, parasite or virus in culture; remark: listed apart in the source
Plasmodium falciparum [4] = test: microbe, parasite or virus in culture; remark: listed apart in the source
Plasmodium falciparum [5] = test: microbe, parasite or virus in culture; remark: listed apart in the source
[6] = Resistance factor as the ratio of IC50 against Plasmodium falciparum K1 to that of Plasmodium falciparum HB3.; format: functional
Plasmodium falciparum [7] = test: Inhibition of chloroquine uptake from intact parasites; Not active; format: functional, organism-based
Plasmodium falciparum [8] = test: Displacement of chloroquine from Fe(3+) FPIX-loaded membrane; format: functional

| Compound | pIC50 (Plasmodium falciparum [1]) | pIC50 [2] | pIC50 (Plasmodium falciparum [3]) | pIC50 (Plasmodium falciparum [4]) | pIC50 (Plasmodium falciparum [5]) | Resistance factor [6] | NA (Plasmodium falciparum [7]) | pIC50 (Plasmodium falciparum [8]) |
| --- | --- | --- | --- | --- | --- | --- | --- | --- |
| CC(C)(C)NCCNc1ccnc2cc(Cl)ccc12 | 8.37 | 4.15 | 5.40 | 7.82 | 6.15 | – | – | – |
| CCN(CC)CCCC(C)Nc1ccnc2cc(Cl)ccc12 (stereo not drawn) | – | – | – | – | – | 10 | – | – |
| Clc1ccc2c(NCCN3CCCCC3)ccnc2c1 | 8.17 | 4.07 | 5.12 | 7.89 | 6.04 | – | – | – |
| Clc1ccc2c(NCCN3CCOCC3)ccnc2c1 | 6.82 | 3.99 | 4.60 | 6.62 | – | – | inactive | – |
| CC(C)(C)NCCNc1ccnc2cc(C(F)(F)F)ccc12 | 8.26 | 4.15 | – | 8.01 | 5.68 | 1.78 | – | 5.30 |
| Clc1ccc2c(NCCN3CCCC3)ccnc2c1 | 8.17 | 4.11 | 5.23 | 7.88 | 5.79 | – | – | – |
| FC(F)(F)c1ccc2c(NCCN3CCCCC3)ccnc2c1 | 7.97 | 4.19 | 5.08 | 7.65 | 5.69 | 2.09 | – | – |
